In ChEMBL document CHEMBL1147689, “Development of withaferin A analogs as probes of angiogenesis” (Bioorg Med Chem Lett, 2006):
The source made the active and inactive calls. The rule behind the calls is not given here.

Experiments:
Assay type in all cases: functional, cell-based
Details in all cases: Homo sapiens
[1] = tested on: HUVEC; experiment: Ability to block bFGF-induced vessel growth in the type 1 collagen matrix at 1 uM
[2] = tested on: HUVEC; experiment: Ability to block bFGF-induced vessel growth in the type 1 collagen matrix at 5 uM
[3] = tested on: HUVEC; experiment: Ability to block bFGF-induced vessel growth in the type 1 collagen matrix at 500 nM
[4] = tested on: HUVEC; experiment: Increase of ubiquitinated protein level in TNF-alpha-treated HUVEC at 5 uM

| Compound | Activity [1] | Activity [2] | Activity [3] | Activity [4] |
| --- | --- | --- | --- | --- |
| CC1=C(CO)C(=O)O[C@@H]([C@@H](C)[C@H]2CC[C@H]3[C@@H]4C[C@H]5O[C@]56[C@@H](O)C=CC(=O)[C@]6(C)[C@H]4CC[C@]23C)C1 | Active |  |  |  |
| CC1=C(CO)C(=O)OC([C@@H](C)C2CCC3C4C(CC[C@@]32C)[C@@]2(C)C(=O)C=CC[C@]2(O)[C@H]2O[C@@H]42)C1 (stereo not given in full) |  | inactive |  |  |
| CC1=C(COC(=O)CNC(=O)CCCCCNC(=O)CCCCCNC(=O)CCCC[C@@H]2SCC3NC(=O)NC32)C(=O)OC([C@@H](C)C2CCC3C4C[C@H]5O[C@]56[C@@H](O)C=CC(=O)[C@]6(C)C4CC[C@@]32C)C1 (stereo not given in full) |  | Active | inactive | Active |
